The source of these data is patent publication US20150011466A1, “APJ Receptor Compounds” (priority 2012, published 2015).

Where a SMILES comes first, the peptide text is derived from it. [ ]: non-standard residue; d: D form. The star is where a group is joined. Palmitoyl = CCCCCCCCCCCCCCCC(=O)*

In data set [1] the test system is Human TRex cells not induced, do not express the APJ receptor. Kind of data set: HTRF cAMP assay in Human TRex cells not induced (no APJ receptor). Format: cell-based.
Procedure: cAMP kits based on a competitive immunoassay using cryptate-labeled anti-cAMP antibody and d2-labeled cAMP were used to assay the effects of APJ compounds of the present invention. This assay measures the increase in intracellular cAMP upon Gs-coupled receptor activation as well as decrease in forskolin (or a more soluble version of forskolin—NKH477) stimulated increase in cAMP upon Gi-coupled receptor activation. […] Cells are treated with lnG/mL doxycycline and seeded in all white 96 well plates @ 40 k/well overnight.
The target of another data set is T1, APJ receptor (Homo sapiens, UniProt P35414).
T1 construct: expressed in transfected cells; host or cells: Human TRex cells (doxycycline-inducible)
T1 sequence (P35414 1-380): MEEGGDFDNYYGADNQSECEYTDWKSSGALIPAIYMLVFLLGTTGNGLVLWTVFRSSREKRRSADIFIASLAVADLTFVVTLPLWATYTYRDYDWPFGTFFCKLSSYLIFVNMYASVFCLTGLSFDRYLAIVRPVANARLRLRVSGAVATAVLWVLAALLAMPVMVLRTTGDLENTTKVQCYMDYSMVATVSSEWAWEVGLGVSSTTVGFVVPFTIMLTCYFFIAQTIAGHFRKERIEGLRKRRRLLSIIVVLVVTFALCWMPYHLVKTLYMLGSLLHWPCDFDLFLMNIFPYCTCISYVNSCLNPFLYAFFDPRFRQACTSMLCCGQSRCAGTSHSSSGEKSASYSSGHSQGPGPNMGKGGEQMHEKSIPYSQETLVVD
Kind of data set: HTRF cAMP assay, inhibition of NKH477 stimulated cAMP in Human TRex cells expressing APJ upon doxycycline induction (APJ-hTREX). It is filed as cell-based. The following applies: for Ranking: class combining EC50 and % histamine; for percent intrinsic activity at 0.3 µM: read-out: % IA (@ 300 nM). The method, boiled down: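 Cells stimulated with NKH477 and cAMP measured by HTRF competitive immunoassay (cryptate anti-cAMP antibody, d2-labeled cAMP). APJ-hTREX cells induced with […] doxycycline and seeded overnight at 40 k/well.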
Background: In TR-FRET formats the signal depends on donor and acceptor labels being close together.

The target in the next data set is T2, Gi-coupled receptor APJ (Homo sapiens, UniProt P35414).
T2 sequence (P35414 1-380): T1 sequence (P35414 1-380)
Kind of data set: HTRF cAMP assay, inhibition of NKH477 stimulated cAMP in HEK cells stably expressing APJ (APJ-h HEK 293 cells). The following applies: for inhibition of NKH477 stimulated increase in cAMP (concentration response curves, FIGS. 1A-1E): HEK cells stably expressing APJ. It is filed as cell-based. From the text:
HTRF (homogeneous time resolved fluorescence) is a technology developed by Cisbio Bioassays based on TR-FRET (time-resolved fluorescence resonance energy transfer). Cisbio Bioassays has developed a wide selection of HTRF-based assays compatible with whole cells, thereby enabling functional assays to run under more physiological conditions. The IP-One assays are competitive immunoassays using cryptate-labeled anti-IP1 monoclonal antibody and d2-labeled IP1. IP1 is a relatively stable downstream metabolite of IP3, and accumulates in cells following Gq receptor activation.
cAMP kits based on a competitive immunoassay using cryptate-labeled anti-cAMP antibody and d2-labeled cAMP were used to assay the effects of APJ compounds of the present invention. […] Cells are treated with […] doxycycline and seeded in all white 96 well plates @ 40 k/well overnight.

In data set [2] the target is T3, APJ receptor (β-arrestin recruitment) (Homo sapiens, UniProt P35414).
T3 sequence (P35414 1-380): T1 sequence (P35414 1-380)
The data set can be described thus: β-Arrestin signaling assay (DiscoveRx PathHunter, enzyme fragment complementation). Format: cell-based. From the text:
Activation of the β-Arrestin signaling pathway was monitored using the commercially available DiscoveRx PathHunter® assay. This assay employs a homogenous, non-imaging assay format called Enzyme Fragment Complementation (EFC) using β-galactosidase (β-Gal) as the functional reporter. […] EA is fused to β-Arrestin and ED is fused to the GPCR of interest. When the GPCR is activated and β-Arrestin is recruited to the receptor, ED and EA complementation occurs, restoring βGal activity which is measured using chemiluminescent PathHunter® Detection Reagent.

On to `CSCC[C@H](NC(=O)[C@@H]1CCCN1C(=O)CNC(=O)[C@H](CCCCN)NC(=O)[C@H](Cc1c[nH]cn1)NC(=O)[C@H](CO)NC(=O)[C@H](CC(C)C)NC(=O)[C@H](CCCNC(=N)N)NC(=O)[C@@H]1CCCN1C(=O)[C@H](CCCNC(=N)N)NC(=O)[C@@H](N)CCC(N)=O)C(=O)N1CCC[C@H]1C(=O)N[C@@H](Cc1ccccc1)C(=O)O` [Apelin], for which the “inhibition of NKH477 stimulated cAMP” value in data set [1] is listed as “does not inhibit”.

Usually EC50 stands for the concentration giving half of the maximal effect. Higher therefore signals lower potency in that assay. As to `CCCCCCCCCCCCCCCC(=O)N[C@H](C(=O)N[C@H](C(=O)N[C@@H](Cc1c[nH]cn1)C(=O)N[C@@H](CCCNC(=N)N)C(=O)N[C@@H](CO)C(=O)N[C@@H](CO)C(=O)N[C@@H](CCC(=O)O)C(=O)N[C@H](CCCCN)C(=O)N[C@@H](CCCNC(=N)N)C(=O)N[C@@H](CCCNC(=N)N)C(=O)N[C@@H](CO)C(=O)N[C@@H](C)C(=O)N[C@@H](CC(=O)O)C(=O)N[C@H](C(=O)N[C@@H](Cc1ccccc1)C(=O)N[C@H](C(N)=O)[C@@H](C)CC)[C@@H](C)CC)C(C)C)[C@@H](C)O` [Compound 9] (Palmitoyl-TVHRSSE[dK]RRSADIFI-NH2; C-terminus assumed), on APJ receptor, the concentration giving a half-maximal response (EC50) amounted to 79.6 nM; the Ranking result is “*** (EC50<100 nM and % histamine>35%)”; the percent intrinsic activity at 0.3 µM worked out at 75%. For the same molecule, a half-maximal effect on Gi-coupled receptor APJ (EC50) was put at 79 nM. In addition, in data set [2], the half-maximal effective concentration (EC50) was found to be 2260 nM. Further, the “β-arrestin recruitment (dose dependent increase in chemiluminescence)” value in data set [2] (in words) is “weakly engaged”. The Emax in data set [2] (read-out: β-arrestin Signaling Max Response) stood at 22%. Further, the “Histimine (% vs. 48/40)” value in the data set “Histimine (% vs. 48/40)” is on record as 36%.

For the molecule `CCCCCCCCCCCCCCCC(=O)N[C@H](C(=O)N[C@H](C(=O)N[C@@H](Cc1ccccc1)C(=O)N[C@@H](CCCNC(=N)N)C(=O)N[C@@H](CO)C(=O)N[C@@H](CCC(N)=O)C(=O)N[C@@H](CCC(=O)O)C(=O)N[C@H](CCCCN)C(=O)N[C@@H](CCCNC(=N)N)C(=O)N[C@@H](CCCNC(=N)N)C(=O)N[C@@H](CO)C(=O)N[C@@H](C)C(=O)N[C@@H](CC(=O)O)C(=O)N[C@H](C(=O)N[C@@H](Cc1ccccc1)C(=O)N[C@H](C(N)=O)[C@@H](C)CC)[C@@H](C)CC)C(C)C)[C@@H](C)O` [Compound 24] (Palmitoyl-TVFRSQE[dK]RRSADIFI-NH2), at APJ receptor, the EC50 turned out to be 42.6 nM; the Ranking entry is “***** (EC50<100 nM and % histamine<35%)”; the percent intrinsic activity at 0.3 µM turned out to be 70%. For the same molecule, the “inhibition of NKH477 stimulated increase in cAMP (concentration response curves, FIGS. 1A-1E)” value (“inhibition of NKH477 stimulated increase” below) against Gi-coupled receptor APJ was “in a dose dependent manner”. Further, in the data set “Histimine (% vs. 48/40)”, the “Histimine (% vs. 48/40)” value stood at 22%.

In the case of `CCCCCCCCCCCCCCCC(=O)NCC(=O)N[C@H](C(=O)N[C@@H](Cc1ccccc1)C(=O)N[C@@H](CCCNC(=N)N)C(=O)N[C@@H](CO)C(=O)N[C@@H](CO)C(=O)N[C@@H](CCC(=O)O)C(=O)N[C@H](CCCCN)C(=O)N[C@@H](CCCNC(=N)N)C(=O)N[C@@H](CCCNC(=N)N)C(=O)N[C@@H](CO)C(=O)N[C@@H](C)C(=O)N[C@@H](CC(=O)O)C(=O)N[C@H](C(=O)N[C@@H](Cc1ccccc1)C(=O)N[C@H](C(N)=O)[C@@H](C)CC)[C@@H](C)CC)C(C)C` [Compound 68] (Palmitoyl-GVFRSSE[dK]RRSADIFI-NH2), on APJ receptor, the EC50 came out at 56.4 nM; the Ranking entry is “***** (EC50<100 nM and % histamine<35%)”; the percent intrinsic activity at 0.3 µM turned out to be 69%. Further, the “inhibition of NKH477 stimulated increase” value against Gi-coupled receptor APJ is on record as “in a dose dependent manner”. In addition, in “Histimine (% vs. 48/40)”, the “Histimine (% vs. 48/40)” value is 21%.

Turning to `CCCCCCCCCCCCCCCC(=O)N[C@H](C(=O)N[C@H](C(=O)NCC(=O)N[C@@H](CCCNC(=N)N)C(=O)N[C@@H](CO)C(=O)N[C@@H](CO)C(=O)N[C@@H](CCC(=O)O)C(=O)N[C@H](CCCCN)C(=O)N[C@@H](CCCNC(=N)N)C(=O)N[C@@H](CCCNC(=N)N)C(=O)N[C@@H](CO)C(=O)N[C@@H](C)C(=O)N[C@@H](CC(=O)O)C(=O)N[C@H](C(=O)N[C@@H](Cc1ccccc1)C(=O)N[C@H](C(N)=O)[C@@H](C)CC)[C@@H](C)CC)C(C)C)[C@@H](C)O` [Compound 70] (Palmitoyl-TVGRSSE[dK]RRSADIFI-NH2), on APJ receptor, the 50% effective concentration (EC50) came to 52.5 nM; the Ranking result is “***** (EC50<100 nM and % histamine<35%)”; the percent intrinsic activity at 0.3 µM is 81%. The “inhibition of NKH477 stimulated increase” value on Gi-coupled receptor APJ is given as “in a dose dependent manner”. Further, the “Histimine (% vs. 48/40)” value in the data set “Histimine (% vs. 48/40)” came to 29%.
